Measured values reported in patent US9695155B2, “Herbicidal substituted pyrimidinyloxy benzene compounds” (E. I. DU PONT DE NEMOURS AND COMPANY, priority 2013, dated 2017).

Key:
ragweed = test: Test C preemergence; type: in vivo, Ambrosia elatior; details: for Ragweed plant response rating: preemergence
Procedure, shortened: (§1)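 Greenhouse herbicide screen. Pre: seeded loam/sand, sprayed at planting. Post: 1–4 leaf plants (2–18 cm) in peat-based mix. Formulation: solvent mixture + surfactant, non-phytotoxic. Readout: visual % control vs untreated, 13–15 d; dash = not tested.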

barnyardgrass = test: Test C preemergence; type: in vivo, Echinochloa crus-galli; details: for Barnyardgrass plant response rating: preemergence
Procedure, shortened: as §1

galium [1] = test: Test C preemergence; type: in vivo, Galium aparine; details: for Galium plant response rating: preemergence
Procedure, shortened: as §1

lambsquarters = test: Test C preemergence; type: in vivo, Chenopodium album; details: for Lambsquarters plant response rating: preemergence
Procedure, shortened: as §1

soybean = test: Test C preemergence; type: in vivo, Glycine max; details: for Soybean plant response rating: preemergence
Procedure, shortened: as §1

Italian ryegrass = test: Test A preemergence; type: in vivo, Lolium multiflorum
Procedure, shortened: (§2)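 Scoring: eye-based comparison with untreated controls, 0 for no effect through 100 for complete control, at about day 10. Treatments: directed soil spray preemergence; foliar spray postemergence on 2–10 cm plants at the one- to two-leaf stage. Medium: loam soil with sand.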

kochia [2] = test: Test A postemergence; type: in vivo, Kochia scoparia
Procedure, shortened: as §2

giant foxtail = test: Test C preemergence; type: in vivo, Setaria faberii; details: for Foxtail, Giant plant response rating: preemergence
Procedure, shortened: as §1

johnsongrass = test: Test C preemergence; type: in vivo, Sorghum halepense; details: for Johnsongrass plant response rating: preemergence
Procedure, shortened: as §1

velvetleaf = test: Test C preemergence; type: in vivo, Abutilon theophrasti; details: for Velvetleaf plant response rating: preemergence
Procedure, shortened: as §1

kochia [3] = test: Test A preemergence; type: in vivo, Kochia scoparia
Procedure, shortened: as §2

galium [4] = test: Test A postemergence; type: in vivo, Galium aparine
Procedure, shortened: as §2

waterhemp = test: Test C preemergence; type: in vivo, Amaranthus rudis; details: for Waterhemp plant response rating: preemergence
Procedure, shortened: as §1

oilseed rape = test: Test C preemergence; type: in vivo, Brassica napus; details: for Oilseed Rape plant response rating: preemergence
Procedure, shortened: as §1

yellow nutsedge = test: Test C preemergence; type: in vivo, Cyperus esculentus; details: for Nutsedge, Yellow plant response rating: preemergence
Procedure, shortened: as §1

blackgrass = test: Test C preemergence; type: in vivo, Alopecurus myosuroides; details: for Blackgrass plant response rating: preemergence
Procedure, shortened: as §1

wheat, winter = test: Test C preemergence; type: in vivo, Triticum aestivum; details: for Wheat plant response rating: preemergence
Procedure, shortened: as §1

pigweed = test: Test C preemergence; type: in vivo, Amaranthus retroflexus; details: for Pigweed plant response rating: preemergence
Procedure, shortened: as §1

[5] = 16 g ai/ha, scale 0 to 100 (0 no effect, 100 complete control)
[6] = 125 g ai/ha, scale 0 (no effect) to 100 (complete control)
[7] = Preemergence, 62 g ai/ha, scale 0 to 100, 0 no effect, 100 complete control
[8] = 500 g ai/ha, 0 to 100 scale where 0 is no effect and 100 is complete control
[9] = 125 g ai/ha, 0 to 100 scale, 0 no effect, 100 complete control

What does the source list for N#Cc1cn(-c2c(C#N)cccc2Oc2ncc(Cl)cn2)nn1 [Compound 273]?
Ragweed plant response rating (ragweed; [5]): 10; Ragweed plant response rating (ragweed; [6]): 85; Plant response rating, Ragweed (ragweed; [7]): 55; Barnyardgrass plant response rating (barnyardgrass; [5]): 0; Barnyardgrass plant response rating (barnyardgrass; [6]): 85; Plant response rating, Barnyardgrass (barnyardgrass; [7]): 25; Galium plant response rating (galium [1]; [5]): 0; Galium plant response rating (galium [1]; [6]): 98; Plant response rating, Galium (galium [1]; [7]): 95; Lambsquarters plant response rating (lambsquarters; [5]): 35; Lambsquarters plant response rating (lambsquarters; [6]): 100; Plant response rating, Lambsquarters (lambsquarters; [7]): 100; Soybean plant response rating (soybean; [5]): 5; Soybean plant response rating (soybean; [6]): 65; Plant response rating, Soybean (soybean; [7]): 40; Ryegrass, Italian plant response rating (0 to 100 scale) (Italian ryegrass; 125 g ai/ha): 20; Ryegrass, Italian plant response rating (Italian ryegrass; [8]): 40; Plant response rating, Kochia (kochia [2]; [9]): 70; Plant response rating, Kochia (kochia [2]; [8]): 100; Foxtail, Giant plant response rating (giant foxtail; [5]): 0; Foxtail, Giant plant response rating (giant foxtail; [6]): 90; Plant response rating, Foxtail, Giant (giant foxtail; [7]): 75; Johnsongrass plant response rating (johnsongrass; [5]): 0; Johnsongrass plant response rating (johnsongrass; [6]): 80; Plant response rating, Johnsongrass (johnsongrass; [7]): 55; Velvetleaf plant response rating (velvetleaf; [5]): 10; Velvetleaf plant response rating (velvetleaf; [6]): 85; Plant response rating, Velvetleaf (velvetleaf; [7]): 85; Kochia plant response rating (0 to 100 scale) (kochia [3]; 125 g ai/ha): 100; Kochia plant response rating (kochia [3]; [8]): 100; Plant response rating, Galium (galium [4]; [9]): 80; Plant response rating, Galium (galium [4]; [8]): 100; Waterhemp plant response rating (waterhemp; [5]): 45; Waterhemp plant response rating (waterhemp; [6]): 100; Plant response rating, Waterhemp (waterhemp; [7]): 98; Oilseed Rape plant response rating (oilseed rape; [5]): 0; Oilseed Rape plant response rating (oilseed rape; [6]): 100; Plant response rating, Oilseed Rape (oilseed rape; [7]): 80; Nutsedge, Yellow plant response rating (yellow nutsedge; [5]): 0; Nutsedge, Yellow plant response rating (yellow nutsedge; [6]): 35; Plant response rating, Nutsedge, Yellow (yellow nutsedge; [7]): 5; Blackgrass plant response rating (blackgrass; [5]): 0; Blackgrass plant response rating (blackgrass; [6]): 70; Plant response rating, Blackgrass (blackgrass; [7]): 5; Wheat plant response rating (wheat, winter; [5]): 0; Wheat plant response rating (wheat, winter; [6]): 5; Plant response rating, Wheat (wheat, winter; [7]): 0; Pigweed plant response rating (pigweed; [5]): 55; Pigweed plant response rating (pigweed; [6]): 100; Plant response rating, Pigweed (pigweed; [7]): 100
